Data: patent publication US20130137741A1 (ALCON RESEARCH, LTD., priority 2009, published 2013)

Tested on: FGFR
Assay: Kinase inhibition, cell-free enzymatic assay
Assay type: biochemical
Conditions: 1 mM ATP

- IC50: > 12.5 µM
SMILES: Cc1ccc(F)c(NC(=O)Nc2ccc(-c3cccc4[nH]nc(N)c34)cc2)c1 [RTK Inhibitor, N-[4-(3-amino-1H-indazol-4-yl)phenyl]-N′-(2-fluoro-5-methylphenyl) urea]
